Measurements as given in PubChem BioAssay (NCI).
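Five concentrations, 48 hours, 96-well plates. GI50 is the concentration that inhibits growth by half. TGI denotes the concentration required for complete inhibition of growth.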

What was measured:
Assay in all cases: NCI tumour cell line growth inhibition, 48 h
A549 NSCLC = system: A549 NSCLC
SNB-75 CNS = system: SNB-75 CNS
OVCAR-5 ovarian = system: OVCAR-5 ovarian
SNB-19 CNS = system: SNB-19 CNS
RPMI-8226 leukemia = system: RPMI-8226 leukemia
SW-620 colon = system: SW-620 colon
U251 CNS = system: U251 CNS
SK-MEL-28 melanoma = system: SK-MEL-28 melanoma
SN12C renal = system: SN12C renal
HT29 colon = system: HT29 colon

Row | SMILES | GI50 (A549 NSCLC) | TGI (A549 NSCLC) | GI50 (SNB-75 CNS) | TGI (SNB-75 CNS) | GI50 (OVCAR-5 ovarian) | TGI (OVCAR-5 ovarian) | GI50 (SNB-19 CNS) | TGI (SNB-19 CNS) | GI50 (RPMI-8226 leukemia) | TGI (RPMI-8226 leukemia) | GI50 (SW-620 colon) | TGI (SW-620 colon) | GI50 (U251 CNS) | TGI (U251 CNS) | GI50 (SK-MEL-28 melanoma) | TGI (SK-MEL-28 melanoma) | GI50 (SN12C renal) | TGI (SN12C renal) | GI50 (HT29 colon) | TGI (HT29 colon)
1 | O=C(c1ccccc1)c1ccc(O)c2ncccc12 | 9.02 µM | > 100 µM | 15 µM | 90.7 µM | 4.87 µM | 22.3 µM | 6.54 µM | > 100 µM | 4.25 µM | 39.1 µM | 4.07 µM | 17.9 µM | 5.93 µM | 26.2 µM | 14.6 µM | > 100 µM | 2.46 µM | 14.8 µM | 10.1 µM | > 100 µM
2 | CC(C)(C)c1cc(-c2c3nc(c(-c4cc(C(C)(C)C)cc(C(C)(C)C)c4)c4ccc([nH]4)c(-c4cc(C(C)(C)C)cc(C(C)(C)C)c4)c4nc(c(-c5cc(C(C)(C)C)cc(C(C)(C)C)c5)c5ccc2[nH]5)C=C4)C=C3)cc(C(C)(C)C)c1 |  | > 100 µM |  | > 100 µM |  | > 100 µM |  | > 100 µM |  | > 100 µM |  | > 100 µM |  | > 100 µM |  | > 100 µM |  | > 100 µM |  | > 100 µM
3 | N#CSCC1CC(O)(c2ccccc2)CC(c2ccc(Cl)cc2)O1 (centres undefined) | 3.74 µM | 17.3 µM | 3.58 µM | 13.3 µM | 12.8 µM | 26 µM | 6.9 µM | 19.7 µM | 1.26 µM | 5.39 µM | 1.83 µM | 3.35 µM | 2.64 µM | 9.03 µM | 1.84 µM | 4.57 µM | 1.81 µM | 3.77 µM | 3.44 µM | 8.74 µM
4 | CNC(=O)/C(=C/c1ccc(OC)cc1)c1cc(OC)c(OC)c(OC)c1 |  | > 100 µM |  | 4.4 µM |  | > 93.3 µM |  | 54.8 µM |  | > 100 µM |  | > 100 µM |  | 23.1 µM |  | > 100 µM |  | 98.1 µM |  | 17.5 µM
5 | C[n+]1cc2cc3c(cc2c2ccccc21)OCO3 | 2.41 µM | 14.4 µM | 2.22 µM | 9.6 µM | 16.5 µM | > 100 µM | 1.64 µM |  | 3.39 µM | 36.4 µM | 4.52 µM | > 100 µM | 1.33 µM | 11.3 µM | 3.49 µM | 14.3 µM | 2.31 µM | 11.1 µM | 3.77 µM | 23 µM
6 | CC(=O)N1N=C(c2ccc(Nc3nc(Nc4ccc(F)cc4)nc(Nc4ccc(Cl)cc4)n3)cc2)CC1c1ccc(N(C)C)cc1 (centres undefined) | 4.27 µM | 43 µM | 3.02 µM | 20.3 µM | 14 µM | 43.6 µM | 6.26 µM | > 56.2 µM | 4.15 µM | > 100 µM | 13.3 µM | 56.8 µM | 4.2 µM | 35.7 µM | 11.7 µM | 40.1 µM | 6.1 µM | 33.3 µM | 3.58 µM | > 75.9 µM
7 | Cc1cc(Cl)cc2c1NC(=O)C2(O)CC(=O)c1ccc(F)cc1 (centres undefined) |  | 81.1 µM |  | > 100 µM |  | > 100 µM |  | > 100 µM |  | 65.3 µM |  | > 100 µM |  | > 100 µM |  | > 100 µM |  | > 100 µM |  | > 100 µM
